Source: ChEMBL document CHEMBL4043139, “Fluoro and pentafluorothio analogs of the antitumoral curcuminoid EF24 with superior antiangiogenic and vascular-disruptive effects” (Bioorg Med Chem, 2017)
Calls of active or inactive are those of the source. No cut-off for these calls is given here.

Legend:
HT-29 [1] = test: Cell cycle arrest in human HT-29 cells assessed as accumulation at G2/M phase at 1 uM after 24 hrs by propidium iodide staining based flow cytometric analysis (reference value: 15.5 +/- 0.5%); type: functional
Homo sapiens = species on record: Homo sapiens; test: Inhibition of NF-kappaB in human 518A2 cells assessed as reduction in p65 subunit expression at 1 to 2 uM after 24 hrs by Western blot analysis; type: cell-based
[2] = Cytotoxicity against HDFa after 72 hrs by MTT assay; type: cell-based; conditions: Homo sapiens
MCF7/Topo = test: (§1) Cytotoxicity against human MCF7/Topo cells after 72 hrs by MTT assay; type: functional, cell-based
[3] = as §1; type: functional, cell-based
HT-29 [4] = test: Cell cycle arrest in human HT-29 cells assessed as accumulation at G1 phase at 1 uM after 24 hrs by propidium iodide staining based flow cytometric analysis (reference value: 68 +/- 0.9%); type: functional
Gallus gallus [5] = test: Vascular disruptive activity in 6 days post fertilized chicken egg assessed as area covered by blood vessels at 10 nmol administered topically measured after 6 hrs by light microscopic analysis relative to control; type: functional
HT-29 [6] = test: Cell cycle arrest in human HT-29 cells assessed as accumulation at sub-G1 phase at 1 uM after 24 hrs by propidium iodide staining based flow cytometric analysis (reference value: 0.9 +/- 0.1%); type: functional
KB-V1/Vbl = test: (§2) Cytotoxicity against human KB-V1/Vbl cells after 72 hrs by MTT assay; type: functional, cell-based
[7] = as §2; type: functional, cell-based
PANC-1 = test: Cytotoxicity against human PANC1 cells after 72 hrs by MTT assay; type: functional, cell-based
HT-29 [8] = test: Cell cycle arrest in human HT-29 cells assessed as accumulation at S phase at 1 uM after 24 hrs by propidium iodide staining based flow cytometric analysis (reference value: 15.6 +/- 0.3%); type: functional
U-87MG ATCC [9] = test: Anti-vasculogenic activity in human U87 cells assessed as reduction in formation of blood-vessel like tubular structures at 2.5 uM after 24 hrs by matrigel based light microscopic analysis; type: functional, cell-based
DLD-1 = test: Cytotoxicity against human DLD1 cells after 72 hrs by MTT assay; type: functional, cell-based
518A2 [10] = test: Cytotoxicity against human 518A2 cells after 72 hrs by MTT assay; type: functional, cell-based
U-87MG ATCC [11] = test: (§3) Cytotoxicity against human U87 cells after 72 hrs by MTT assay; type: functional, cell-based
[12] = as §3; type: functional, cell-based, U-87MG ATCC; conditions: U-87 MG
HT-29 [13] = test: Cell cycle arrest in human HT-29 cells assessed as accumulation at sub-G1 phase at 5 uM after 24 hrs by propidium iodide staining based flow cytometric analysis (reference value: 0.9 +/- 0.1%); type: functional
U-87MG ATCC [14] = test: Anti-vasculogenic activity in human U87 cells assessed as reduction in formation of cord-like structures at 2.5 uM after 24 hrs by matrigel based light microscopic analysis; type: functional, cell-based
518A2 [15] = test: Anti-migratory activity in human 518A2 cells assessed as wound closure at 250 nM after 24 hrs by light microscopic analysis; type: functional, cell-based
HT-29 [16] = test: Cell cycle arrest in human HT-29 cells assessed as accumulation at G2/M phase at 2.5 uM after 24 hrs by propidium iodide staining based flow cytometric analysis (reference value: 15.5 +/- 0.5%); type: functional
HT-29 [17] = test: Cell cycle arrest in human HT-29 cells assessed as accumulation at S phase at 2.5 uM after 24 hrs by propidium iodide staining based flow cytometric analysis (reference value: 15.6 +/- 0.3%); type: functional
HT-29 [18] = test: Upregulation of cyclin B1 expression in human HT-29 cells at 1 to 2.5 uM after 24 hrs by Western blot analysis; type: functional, cell-based
Gallus gallus [19] = test: Vascular disruptive activity in 6 days post fertilized chicken egg chorioallantoic/vitelline membrane assessed as degradation of blood vessels at 10 nmol administered topically measured after 6 hrs by stereo-microscopic analysis; type: functional
HCT-116 = test: Cytotoxicity against human HCT116 cells after 72 hrs by MTT assay; type: functional, cell-based
[20] = Cytotoxicity against human U87 cells assessed as cell viability at 10 nmol after 24 hrs by MTT assay relative to control; type: cell-based, U-87MG ATCC; conditions: read-out: Activity
HT-29 [21] = test: Cell cycle arrest in human HT-29 cells assessed as accumulation at sub-G1 phase at 2.5 uM after 24 hrs by propidium iodide staining based flow cytometric analysis (reference value: 0.9 +/- 0.1%); type: functional
HT-29 [22] = test: Cell cycle arrest in human HT-29 cells assessed as accumulation at S phase at 5 uM after 24 hrs by propidium iodide staining based flow cytometric analysis (reference value: 15.6 +/- 0.3%); type: functional
HT-29 [23] = test: Cytotoxicity against human HT-29 cells after 72 hrs by MTT assay; type: functional, cell-based
HT-29 [24] = test: Cell cycle arrest in human HT-29 cells assessed as accumulation at G2/M phase at 5 uM after 24 hrs by propidium iodide staining based flow cytometric analysis (reference value: 15.5 +/- 0.5%); type: functional
HT-29 [25] = test: Cell cycle arrest in human HT-29 cells assessed as accumulation at G1 phase at 5 uM after 24 hrs by propidium iodide staining based flow cytometric analysis (reference value: 68 +/- 0.9%); type: functional
Gallus gallus [26] = test: Vascular disruptive activity in 6 days post fertilized chicken egg chorioallantoic/vitelline membrane assessed as disruption of capillary reticulation at 10 nmol administered topically measured after 6 hrs by stereo-microscopic analysis; type: functional
518A2 [27] = test: Anti-migratory activity in human 518A2 cells assessed as wound closure at 250 nM after 48 hrs by light microscopic analysis (reference value: 100%); type: functional
HT-29 [28] = test: Cell cycle arrest in human HT-29 cells assessed as accumulation at G1 phase at 2.5 uM after 24 hrs by propidium iodide staining based flow cytometric analysis (reference value: 68 +/- 0.9%); type: functional
Gallus gallus [29] = test: Vascular disruptive activity in 6 days post fertilized chicken egg chorioallantoic/vitelline membrane at 10 nmol administered topically measured up to 24 hrs by stereo-microscopic analysis; type: functional

CN1C/C(=C\c2c(F)cc(F)cc2F)C(=O)/C(=C/c2c(F)cc(F)cc2F)C1
Activity (HT-29 [1]): 17.8% | inhibition (Homo sapiens): Active | IC50 [2]: > 10 µM | Activity (MCF7/Topo): Dose-dependent effect | IC50 [3]: 2100 nM | Activity (HT-29 [4]): 58.9% | Activity (Gallus gallus [5]): 40% | Activity (HT-29 [6]): 5% | Activity (KB-V1/Vbl): Dose-dependent effect | IC50 [7]: 820 nM | Activity (PANC-1): Dose-dependent effect | IC50 (PANC-1; PANC-1, 72 h): > 10 µM | Activity (HT-29 [8]): 18.3% | Activity (U-87MG ATCC [9]): inactive | Activity (DLD-1): Dose-dependent effect | IC50 (DLD-1; DLD-1, 72 h): > 10 µM | Activity (518A2 [10]): Dose-dependent effect | IC50 (518A2 [10]; 518A2, 72 h): > 10 µM | Activity (U-87MG ATCC [11]): Dose-dependent effect | IC50 [12]: > 10 µM | Activity (HT-29 [13]): 32.7% | Activity (U-87MG ATCC [14]): inactive | Activity (518A2 [15]): Active | Activity (HT-29 [16]): 37% | Activity (HT-29 [17]): 7.4% | Activity (HT-29 [18]): Active | Activity (Gallus gallus [19]): Active | Activity (HCT-116): Dose-dependent effect | IC50 (HCT-116; HCT-116, 72 h): > 10 µM | viability at 24 h, 10 nmol [20]: > 85% | Activity (HT-29 [21]): 30.1% | Activity (HT-29 [22]): 8.1% | Activity (HT-29 [23]): Dose-dependent effect | IC50 (HT-29 [23]; HT-29, 72 h): > 10 µM | Activity (HT-29 [24]): 36.9% | Activity (HT-29 [25]): 22.2% | Activity (Gallus gallus [26]): Active | Activity (518A2 [27]): Active | Activity (HT-29 [28]): 25.5%

COc1cc(/C=C/C(=O)CC(=O)/C=C/c2ccc(O)c(OC)c2)ccc1O
Activity (Gallus gallus [5]): inactive | Activity (Gallus gallus [29]): inactive
